Measured values from PubChem BioAssay AID504726 (Broad Institute, 2011).
Several values for one entry are separate records, joined by “and”; a condition that tells them apart may be missing. Equal entries are not always repeated.

System: HeLa viability, CellTiter-Glo ATP luminescence, 24 h
Assay: viability loss in HeLa cells – cell-based, 24 h, cherry-picked samples, cytotoxicity control, dose response (AID 504726)

How did the AC50 turn out when `O=C1c2c(O)ccc(O)c2C(=O)c2c(NCCNCCO)ccc(NCCNCCO)c21` was run?
Its AC50 is 1360 nM and 4080 nM.
